Values belong to the compound of their own block, whether it stands above or below them.
Assays:
[1] = system: rabbits; assay: Intraocular pressure and ocular observations after topical (eye drop) application; assay type: in vivo, rabbit
Procedure: The measurement of intraocular pressure (IOP), was performed using procedures similar to those described in Nathanson, Brit. J. Pharmacol., 73:97 (1981) and Nathanson, Current Eye Res., 4:191 (1985). Briefly, male (3-5 kg), New Zealand white rabbits were housed under standard conditions and exposed to a 12 hr light-dark cycle. IOP was measured with a Perkins applanation tonometer after topical anesthesia with 0.4% benoxinate (and 0.25% sodium fluorescein). The tonometer had been calibrated previously by connecting the anterior chamber of enucleated rabbit eyes to a manometer (and reservoir) and taking tonometer readings at different pressures. A number of preliminary IOP readings were made in order to accommodate the animals to the measurement procedure. Readings were then taken just prior to drug or vehicle injection and at 3, 9, 20, 27, 44, 51, 72, and 144 hours post-injection.
A potent PDE inhibitor of the arylxanthine class, 1,3-dibutylxanthine, was applied unilaterally and topically to rabbit eyes in a 0.5% solution. […] The IOP was decreased 4 mm (Hg) in the ipsilateral eye (Figure 8).
(§1) Again there was about a 4 mm (Hg) decrease in intraocular pressure. […] This xanthine inhibited the enzyme with an IC₅₀ (concentration necessary for 50% enzyme inhibition) of 25 uM.
The effect of nitroglycerine eye drops on rabbit intraocular pressure was also measured. The IOP of 8 conscious, male albino rabbits (3-4 kg) was measured by applanation pnumatonometry after topical anesthesia with 0.4% benoxinate. Nitroglycerine in phosphate buffered saline, pH 7.4, was given unilaterally, in two 25µl drops spaced five minutes apart. Blood pressure and pulse rate were measured by a photoelectric detector using an automated external tail cuff. […] By 24 hours, pressure had returned to normal.

[2] = target: T1, guanylate cyclase (Oryctolagus cuniculus, UniProt G1TXB5); assay: Atriopeptin-activated guanylate cyclase in kidney membrane (P1) fractions; assay type: biochemical, rabbit; set-up: tissues were homogenized (10 mg wet weight per milliliter); from tissue; host or cells: rabbit cerebral microvessels, choroid plexus, kidney, ciliary process, pia-arachnoid, cerebellum; 100,000 g P1 pellet; details: mean ± range of duplicate determinations
T1 sequence (G1TXB5 28-1056): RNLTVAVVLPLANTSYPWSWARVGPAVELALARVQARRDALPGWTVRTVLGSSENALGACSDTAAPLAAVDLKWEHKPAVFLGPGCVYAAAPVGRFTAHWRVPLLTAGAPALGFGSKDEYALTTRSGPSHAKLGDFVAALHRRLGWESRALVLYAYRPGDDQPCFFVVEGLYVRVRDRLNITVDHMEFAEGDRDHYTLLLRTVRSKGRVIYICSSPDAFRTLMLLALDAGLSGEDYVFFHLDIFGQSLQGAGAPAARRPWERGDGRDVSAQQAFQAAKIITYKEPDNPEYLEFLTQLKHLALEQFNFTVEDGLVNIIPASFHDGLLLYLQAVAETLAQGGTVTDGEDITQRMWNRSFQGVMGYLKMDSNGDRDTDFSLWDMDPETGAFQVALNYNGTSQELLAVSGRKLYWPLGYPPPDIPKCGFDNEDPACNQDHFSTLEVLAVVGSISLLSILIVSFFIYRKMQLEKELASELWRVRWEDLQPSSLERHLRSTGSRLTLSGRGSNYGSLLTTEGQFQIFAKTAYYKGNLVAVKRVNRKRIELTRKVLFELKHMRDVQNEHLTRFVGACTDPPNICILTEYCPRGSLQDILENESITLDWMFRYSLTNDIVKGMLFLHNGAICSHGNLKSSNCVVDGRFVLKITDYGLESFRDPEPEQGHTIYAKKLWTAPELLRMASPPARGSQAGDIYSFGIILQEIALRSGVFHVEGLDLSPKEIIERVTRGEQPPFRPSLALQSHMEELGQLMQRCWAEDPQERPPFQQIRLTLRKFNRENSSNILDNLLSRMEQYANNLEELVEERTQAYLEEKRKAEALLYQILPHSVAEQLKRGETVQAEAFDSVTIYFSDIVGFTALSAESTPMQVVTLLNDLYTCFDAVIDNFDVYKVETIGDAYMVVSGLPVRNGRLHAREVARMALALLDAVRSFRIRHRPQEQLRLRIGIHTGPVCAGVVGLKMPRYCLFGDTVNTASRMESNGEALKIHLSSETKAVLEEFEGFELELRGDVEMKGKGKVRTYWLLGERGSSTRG
Procedure: (§2) The effect of rANP on membrane-bound guanylate cyclase and adenylate cyclase activity in various brain-barrier tissues and tissue fractions from rabbit was compared with its activity in cerebrum and cerebellum. Guanylate cyclase was measured as the rate of cyclic GMP formation by modifications of the technique of Waldman et al., supra, incorporated herein by reference. Briefly, tissues were homogenized (10 mg wet weight per milliliter) in 50 mM tris-HCl, pH 8.0, 1 mM EDTA, 1 mM dithiothreitol, and 250 mM sucrose and centrifuged at 100,000g to obtain a P1 pellet. Reaction tubes contained (in 0.3 ml), 50 mM tris, pH 7.6, 6 mM MnCl₂, 0.5 mM 3-isobutyl, 1-methylxanthine (IBMX), 10 mM theophylline, 3 mM GTP, hormone (in 0.03 ml containing 2.5 mM ascorbic acid and 0.1% bovine serum albumin), and 0.06 ml of P1 fraction (40 to 60 ug of protein). The reaction (4 minutes at 30°C) was started by addition of GTP and terminated by addition of 0.3 ml of 150 mM sodium acetate (pH 4.0) and boiling for 3 minutes. Cyclic GMP formed was subsequently measured by radioimmunoassay as described in example 6, infra. Under these conditions, guanylate cyclase activity was linear with time and tissue concentration. Adenylate cyclase activity in P1 fractions was measured according to the method described by Nathanson, et al., Science; 204:843 (1979); Mol. Pharmacol. 18:199 (1980), see Figure 1C . […] Neurosci. Abstr., 10, 899 (1984); Nathanson, et al., Soc. Neurosci. Abstr., 12, 1257 (1986), incorporated herein by reference, but with a lower concentration (0.025%) of trypsin and a rotating tissue tumbler which allowed cleaner fractionation of epithelial cells from erythrocytes and vascular components.
Ciliary process tips were obtained from male, 3-4 kg, New Zealand white rabbits, immediately following sacrifice with an overdose of ether, as described in Nathanson, Invest. Ophthal. Vis. Sci., 21:7981 (1982). […]
(§3) Atriopeptin-activated guanylate cyclase activity was measured as the rate of conversion of GTP to cyclic GMP. […]

[3] = target: T1, guanylate cyclase; assay: Atriopeptin-activated guanylate cyclase in ciliary process membrane (P1) fractions; assay type: biochemical, rabbit; set-up: tissues were homogenized (10 mg wet weight per milliliter); from tissue; host or cells: rabbit cerebral microvessels, choroid plexus, kidney, ciliary process, pia-arachnoid, cerebellum; 100,000 g P1 pellet; details: mean ± range of duplicate determinations
Procedure: Ciliary process tips were obtained from male, 3-4 kg, New Zealand white rabbits, immediately following sacrifice with an overdose of ether, as described in Nathanson, Invest. Ophthal. Vis. Sci., 21:7981 (1982). The tissue was minced and homogenized (10 mg/ml) by hand in a glass-glass homogenizer in a buffer consisting of 50 mM Tris HCl, pH 8.0; 1mM EDTA, and 250mM sucrose. The homogenate was diluted 30-fold with buffer and centrifuged at 100,000 x g, to obtain a P1 fraction. The pellet was rehomogenized in the original volume and left on ice until use. P1 fractions were also prepared from wedges of rabbit kidney taken from the same animals. In some experiments, P1 fractions were prepared from iris and from ciliary body, as described in Nathanson, Proc. Natl. Acad. Sci. USA, 77:7420 (1980). Briefly, iris was removed from its attachment to the ciliary body, cleaned of adhering ciliary process tissue, washed, and homogenized as above. The ciliary muscle was cleaned of most remaining ciliary process tissue, freed from the underlying sclera by blunt and sharp dissection, and then washed and homogenized.
as §3
For RIA, each tube contained (in 0.5ml), 50mM sodium acetate buffer (pH 6.2), 2mM EDTA, 1mg/ml bovine serum albumin, 0.1 ml of sample (or diluted sample), 8,000-15,000 cpm (about 5 fmole) of ¹²⁵I succinyl cyclic GMP tyrosine methyl ester, and antibody to bind 25-35% of the label. […] Activation constants (Ka) were determined from dose-response curves utilizing 12-14 data points (6-7 concentrations of hormone, in duplicate), each point representing the mean of triplicate RIA determinations.
Atriopeptin-activated guanylate cyclase activity was measured, as described in Example 5, in membranes from rabbit kidney and ciliary process prepared as in Example 4. […]

[4] = system: adenylate cyclase; assay: Adenylate cyclase activity in P1 fractions of whole choroid; assay type: biochemical, rabbit; details: rANP at high concentrations
Procedure: as §2, with “Abstr., 10, 899 (1984); Nathanson, et al., Soc. Neurosci. Abstr., 12, 1257 (1986), incorporated herein by reference, but with a lower concentration (0.025%) of trypsin and a rotating tissue tumbler which allowed cleaner fractionation of epithelial cells from erythrocytes and vascular components.” left out

[5] = system: guanylate cyclase; assay: Ciliary process guanylate cyclase activity (Tables 2 and 3); assay type: biochemical; details: Table 3; concentration not given
[6] = target: cGMP phosphodiesterase; assay: Inhibition of cGMP phosphodiesterase in ciliary process; assay type: biochemical; details: Fig. 9B, read-out: IC₅₀ (concentration necessary for 50% enzyme inhibition)
Excerpt: The ability of any compound to inhibit cGMP phosphodiesterase (PDE) activity in broken-cell preparations of choroid epithelial cells or ciliary process can be determined either 1) by measuring the decrease in rate of hydrolysis of an added amount of cyclic GMP by PDE (see, Methods Section of Nathanson et al., Mol. Pharmacol. 12:390-398 (1975)), or 2) by measuring the rate of accumulation of one of the breakdown products of cyclic GMP, such as 5'-GMP or guanosine (see method of Filburn et al., Anal. Biochem. 52:505-516 (1973)). Both of these are herein incorporated by reference.
as §1

Compound: CCCCn1c(=O)c2[nH]cnc2n(CCCC)c1=O [1,3-dibutylxanthine]
IOP in the contralateral eye ([1]; 0.5% solution, unilateral topical): small decrease
decrease of IOP in the ipsilateral eye ([1]; 0.5% solution, unilateral topical, rabbit eyes): 4 mm (Hg)

Compound: rANP 1-11 (SLRRSSCFGGR; Atrial natriuretic peptide; UniProt P01161 123-133, looked up, fragment)
Vmax Stimulation (%) of Guanylate Cyclase Kidney [2]: 25 ± 6%
Vmax Stimulation (%) of Guanylate Cyclase Ciliary Process [3]: 4 ± 6%

Compound: CC(C)NCC(O)c1ccc(O)c(O)c1 (stereo not drawn) [isoproterenol]
effect on adenylate cyclase activity [4]: stimulated

Compound: sodium nitrate [COMPOUND "N"]
effect on IOP ([1]; 0.1% eye drop preparation, rabbits): lowers IOP
CILIARY PROCESS GUANYLATE CYCLASE ACTIVITY (Percent Increase) [5]: 46 Percent Increase

IC50 [6]: 25 µM
Compound: CC(C)Cn1c(=O)n(C)c(=O)c2[nH]cnc21 [1-methyl-3-isobutyl-xanthine]
decrease in intraocular pressure ([1]; topical administration, Fig. 9A): ~4 mm (Hg)

Reference: patent publication EP0583821A1, “Atriopeptins, guanylate cyclase activators, and phosphodiesterase inhibitors as treatment for glaucoma, hydrocephalus and cerebral edema (cranial fluid volume dysfunction)” (THE GENERAL HOSPITAL CORPORATION, priority 1987, dated 1988)
